# Laboratory results reported in US20250066346A1, “SOLID FORMS OF A BENZTHIAZOLE-PIPERAZINYL-OXAZOLE COMPOUND AND METHODS OF USE THEREOF” (Hepagene Therapeutics (HK) Limited, priority 2022, published 2025).
# Where a name gives a salt, the structure may show the parent alone.
# How the values were obtained:
# Format in all cases: physicochemical
# [1] = Solid state stability (XRPD for physical stability, HPLC purity for chemical stability); conditions: for Purity/initial purity: HPLC; for Form change: XRPD
# Text: All the samples were characterized by XRPD for physical stability and HPLC purity for chemical stability evaluation (Table 16).
# [2] = Kinetic solubility in water and bio-relevant media (SGF, FaSSIF, FeSSIF) at 37° C.; parameters: key to FC: form change: Yes: form changed; No: form not changed; conditions: for pH: filtered supernatant
# Method: Agilent 1260 HPLC was utilized and detailed chromatographic conditions are provided in Tables 3 and 4 for purity and solubility test, respectively.
# About 20 mg of free base (form A) HCl salt (form B), and HBr salt (form D) were added to a 5-mL glass vials followed by the addition of 4 mL of the corresponding medium/solvent into each glass vial to form a suspension. The vials were capped and rolled at 37° C. (25 rpm). Samples were removed (1 mL) at 1 h, 4 h, and 24 h and centrifuged (14000 rpm, 2 min, room temperature). The supernatant was filtered through 0.22 μm syringe filter (first few drops of filtrate were discarded) for HPLC solubility and pH tests (Table 15). The residual solids were analyzed by XRPD.
# [3] = Hygroscopicity by dynamic vapor sorption (DVS) at 25° C.
# Method: DVS was measured via a SMS (Surface Measurement Systems) DVS Intrinsic. The relative humidity at 25° C. was calibrated against deliquescence point of LiCl, Mg(NO3)2 and KCl.
# [4] = Form conversion by variable-temperature XRPD (VT-XRPD); conditions: for form after exposing to ambient conditions: ambient conditions for about 10 min; for form change after heating to 120° C. and cooling to 30° C.: with N2 protection, VT-XRPD
# Method: […] 22.
# Based on data above, it would convert to dehydrate state (HCl salt Form C) at low humidity and back to hydrate at high humidity.
# HBr salt Form E was observed after N2 purging HBr salt Form D for 20 min at 30° C. via variable-temperature XRPD (VT-XRPD) shown in FIG. 23.
# Based on data above, it would convert to dehydrate state (HBr salt Form E) at low humidity and back to hydrate at high humidity.
smiles,measurement,setting,value
"COc1cc(C(=O)O)cc2sc(N3CCN(Cc4c(-c5c(Cl)cccc5Cl)noc4C4CC4)C[C@H]3C)nc12 [HBr salt Form D, (R)-2-(4-((5-cyclopropyl-3-(2,6-dichlorophenyl)isoxazol-4-yl)methyl)-2-methylpiperazin-1-yl)-4-methoxybenzo[d]thiazole-6-carboxylic acid]",Purity/initial purity,[1]; 25° C./60% RH/1 week,99.9%
same,Form change,[1]; 25° C./60% RH/1 week,No
same,Purity/initial purity,[1]; 40° C./75% RH/1 week,99.9%
same,Form change,[1]; 40° C./75% RH/1 week,No
same,HPLC purity after storage (in words),[1]; 80° C. for 1 day,decreased
same,Purity/initial purity,[1]; 80° C./1 day,99.5%
same,Form change,[1]; 80° C./1 day,No
same,form change (in words),[1]; all test conditions,no form change was observed
same,solubility in FaSSIF and FeSSIF (in words),[2],significant solubility improvement
same,FC: form change,"[2]; FaSSIF, 1 hr",No
same,S: solubility,"[2]; FaSSIF, 1 hr",320 µg/mL
same,pH,"[2]; FaSSIF, 1 hr",6.3
same,FC: form change,"[2]; FaSSIF, 4 hrs",No
same,S: solubility,"[2]; FaSSIF, 4 hrs",460 µg/mL
same,pH,"[2]; FaSSIF, 4 hrs",6.3
same,FC: form change,"[2]; FaSSIF, 24 hrs",No
same,S: solubility,"[2]; FaSSIF, 24 hrs",640 µg/mL
same,pH,"[2]; FaSSIF, 24 hrs",6.3
same,FC: form change,"[2]; FeSSIF, 1 hr",No
same,S: solubility,"[2]; FeSSIF, 1 hr",660 µg/mL
same,pH,"[2]; FeSSIF, 1 hr",5.1
same,FC: form change,"[2]; FeSSIF, 4 hrs",No
same,S: solubility,"[2]; FeSSIF, 4 hrs",710 µg/mL
same,pH,"[2]; FeSSIF, 4 hrs",5.1
same,FC: form change,"[2]; FeSSIF, 24 hrs",No
same,S: solubility,"[2]; FeSSIF, 24 hrs",780 µg/mL
same,pH,"[2]; FeSSIF, 24 hrs",5.0
same,FC: form change,"[2]; H2O, 1 hr",No
same,S: solubility,"[2]; H2O, 1 hr",0.6 µg/mL
same,pH,"[2]; H2O, 1 hr",3.0
same,FC: form change,"[2]; H2O, 4 hrs",No
same,S: solubility,"[2]; H2O, 4 hrs",0.7 µg/mL
same,pH,"[2]; H2O, 4 hrs",3.0
same,FC: form change,"[2]; H2O, 24 hrs",No
same,S: solubility,"[2]; H2O, 24 hrs",0.6 µg/mL
same,pH,"[2]; H2O, 24 hrs",3.0
same,FC: form change,"[2]; SGF, 1 hr",No
same,S: solubility,"[2]; SGF, 1 hr",31 µg/mL
same,pH,"[2]; SGF, 1 hr",1.9
same,FC: form change,"[2]; SGF, 4 hrs",No
same,S: solubility,"[2]; SGF, 4 hrs",30 µg/mL
same,pH,"[2]; SGF, 4 hrs",1.9
same,FC: form change,"[2]; SGF, 24 hrs",Yes
same,S: solubility,"[2]; SGF, 24 hrs",43 µg/mL
same,pH,"[2]; SGF, 24 hrs",1.7
same,"solubility in SGF, FaSSIF, and FeSSIF compared with free base (form A) and HCl salt (form B)","[2]; SGF, FaSSIF, FeSSIF",improved solubility
same,"solubility in water, ranking among form A, form B, form D",[2]; water,lowest solubility
same,water uptake,"[3]; in the range of 0% RH to 20% RH, platform between 20% RH and 80% RH",2.6%
"COc1cc(C(=O)O)cc2sc(N3CCN(Cc4c(-c5c(Cl)cccc5Cl)noc4C4CC4)C[C@H]3C)nc12 [Form C, (R)-2-(4-((5-cyclopropyl-3-(2,6-dichlorophenyl)isoxazol-4-yl)methyl)-2-methylpiperazin-1-yl)-4-methoxybenzo[d]thiazole-6-carboxylic acid]",form after exposing to ambient conditions,[4],HCl salt Form B was re-obtained
same,form change after heating to 120° C. and cooling to 30° C.,[4],no form change occurred
"COc1cc(C(=O)O)cc2sc(N3CCN(Cc4c(-c5c(Cl)cccc5Cl)noc4C4CC4)C[C@H]3C)nc12 [HCl salt Form B, (R)-2-(4-((5-cyclopropyl-3-(2,6-dichlorophenyl)isoxazol-4-yl)methyl)-2-methylpiperazin-1-yl)-4-methoxybenzo[d]thiazole-6-carboxylic acid]",Purity/initial purity,[1]; 25° C./60% RH/1 week,100.0%
same,Form change,[1]; 25° C./60% RH/1 week,No
same,Purity/initial purity,[1]; 40° C./75% RH/1 week,100.0%
same,Form change,[1]; 40° C./75% RH/1 week,No
same,"solid state stability (overall, in words)","[1]; 80° C./1 day, 25° C./60% RH/1 week, 40° C./75% RH/1 week",good solid state stability
same,Purity/initial purity,[1]; 80° C./1 day,100.0%
same,Form change,[1]; 80° C./1 day,No
same,solubility in FaSSIF and FeSSIF (in words),[2],significant solubility improvement
same,FC: form change,"[2]; FaSSIF, 1 hr",No
same,S: solubility,"[2]; FaSSIF, 1 hr",290 µg/mL
same,pH,"[2]; FaSSIF, 1 hr",6.5
same,FC: form change,"[2]; FaSSIF, 4 hrs",No
same,S: solubility,"[2]; FaSSIF, 4 hrs",420 µg/mL
same,pH,"[2]; FaSSIF, 4 hrs",6.5
same,FC: form change,"[2]; FaSSIF, 24 hrs",No
same,S: solubility,"[2]; FaSSIF, 24 hrs",570 µg/mL
same,pH,"[2]; FaSSIF, 24 hrs",6.4
same,FC: form change,"[2]; FeSSIF, 1 hr",No
same,S: solubility,"[2]; FeSSIF, 1 hr",480 µg/mL
same,pH,"[2]; FeSSIF, 1 hr",5.1
same,FC: form change,"[2]; FeSSIF, 4 hrs",No
same,S: solubility,"[2]; FeSSIF, 4 hrs",480 µg/mL
same,pH,"[2]; FeSSIF, 4 hrs",5.0
same,FC: form change,"[2]; FeSSIF, 24 hrs",No
same,S: solubility,"[2]; FeSSIF, 24 hrs",500 µg/mL
same,pH,"[2]; FeSSIF, 24 hrs",5.0
same,FC: form change,"[2]; H2O, 1 hr",No
same,S: solubility,"[2]; H2O, 1 hr",4.9 µg/mL
same,pH,"[2]; H2O, 1 hr",6.1
same,FC: form change,"[2]; H2O, 4 hrs",No
same,S: solubility,"[2]; H2O, 4 hrs",5.6 µg/mL
same,pH,"[2]; H2O, 4 hrs",5.9
same,FC: form change,"[2]; H2O, 24 hrs",No
same,S: solubility,"[2]; H2O, 24 hrs",6.1 µg/mL
same,pH,"[2]; H2O, 24 hrs",6.4
same,FC: form change,"[2]; SGF, 1 hr",No
same,S: solubility,"[2]; SGF, 1 hr",61 µg/mL
same,pH,"[2]; SGF, 1 hr",1.8
same,FC: form change,"[2]; SGF, 4 hrs",No
same,S: solubility,"[2]; SGF, 4 hrs",48 µg/mL
same,pH,"[2]; SGF, 4 hrs",1.9
same,FC: form change,"[2]; SGF, 24 hrs",Yes
same,S: solubility,"[2]; SGF, 24 hrs",39 µg/mL
same,pH,"[2]; SGF, 24 hrs",1.8
same,water uptake,"[3]; in the range of 0% RH to 30% RH, platform between 30% RH and 95% RH",2.5%
"COc1cc(C(=O)O)cc2sc(N3CCN(Cc4c(-c5c(Cl)cccc5Cl)noc4C4CC4)C[C@H]3C)nc12 [Form E, (R)-2-(4-((5-cyclopropyl-3-(2,6-dichlorophenyl)isoxazol-4-yl)methyl)-2-methylpiperazin-1-yl)-4-methoxybenzo[d]thiazole-6-carboxylic acid]",form after exposing to ambient conditions,[4],HBr salt Form D was re-obtained
same,form change after heating to 120° C. and cooling to 30° C.,[4],no form change occurred
